Common to all, as to format: binding
Holding throughout (conditions): Compound Concentration 10 µM

Assay [1] deals with T1, panel of 442 kinases (Homo sapiens, UniProt Q9H422).
T1 construct: purchased KINOMEscan
The source says:
(§1) We assessed the selectivity of members of this scaffold using the KINOMEscan methodology across a near comprehensive panel of 442 kinases [[18,27]].

Assay [2] addresses T2, panel of 442 kinases (Homo sapiens, UniProt P00533, G719C).
T2 construct: purchased KINOMEscan
Excerpt: as §1

The target of assay [3] is T3, panel of 442 kinases (Homo sapiens, UniProt Q9NQU5).
T3 construct: purchased KINOMEscan
T3 sequence (Q9NQU5 whole entry): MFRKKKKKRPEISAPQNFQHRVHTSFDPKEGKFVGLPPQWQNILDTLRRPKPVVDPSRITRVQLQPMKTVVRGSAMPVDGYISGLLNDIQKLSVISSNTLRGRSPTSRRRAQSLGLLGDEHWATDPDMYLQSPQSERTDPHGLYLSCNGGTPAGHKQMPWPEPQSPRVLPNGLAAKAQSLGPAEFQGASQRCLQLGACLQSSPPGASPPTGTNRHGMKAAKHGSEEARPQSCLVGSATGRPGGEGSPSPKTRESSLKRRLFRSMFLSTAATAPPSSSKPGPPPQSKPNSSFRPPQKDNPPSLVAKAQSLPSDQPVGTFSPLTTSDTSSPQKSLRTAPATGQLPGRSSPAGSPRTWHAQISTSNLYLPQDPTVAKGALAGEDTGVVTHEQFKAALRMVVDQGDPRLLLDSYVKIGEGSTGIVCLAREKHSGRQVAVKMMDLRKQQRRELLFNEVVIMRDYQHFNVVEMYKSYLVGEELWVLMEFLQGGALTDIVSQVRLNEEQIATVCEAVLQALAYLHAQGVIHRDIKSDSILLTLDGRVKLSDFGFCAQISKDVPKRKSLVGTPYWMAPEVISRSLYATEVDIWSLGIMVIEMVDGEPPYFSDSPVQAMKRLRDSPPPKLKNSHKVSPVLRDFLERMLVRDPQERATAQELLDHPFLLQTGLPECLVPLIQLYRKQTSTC
Excerpt: as §1

The target in assay [4] is T4, panel of 442 kinases (Homo sapiens, UniProt P50750).
T4 construct: purchased KINOMEscan
T4 sequence (P50750 whole entry): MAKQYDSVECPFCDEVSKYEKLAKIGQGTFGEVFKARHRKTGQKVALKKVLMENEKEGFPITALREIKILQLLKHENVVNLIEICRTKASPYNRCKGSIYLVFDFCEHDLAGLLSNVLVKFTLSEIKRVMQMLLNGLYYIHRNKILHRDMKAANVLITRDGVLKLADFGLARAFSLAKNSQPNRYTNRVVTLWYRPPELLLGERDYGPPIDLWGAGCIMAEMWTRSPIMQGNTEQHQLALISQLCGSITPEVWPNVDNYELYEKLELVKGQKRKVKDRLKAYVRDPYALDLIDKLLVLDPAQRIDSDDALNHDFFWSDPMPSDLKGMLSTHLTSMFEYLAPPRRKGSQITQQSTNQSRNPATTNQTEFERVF
Excerpt: as §1

The results in this text go back to paper PMC3914206.

Molecules are shown by their SMILES.

T2 sequence (P00533 25-1210 G719C): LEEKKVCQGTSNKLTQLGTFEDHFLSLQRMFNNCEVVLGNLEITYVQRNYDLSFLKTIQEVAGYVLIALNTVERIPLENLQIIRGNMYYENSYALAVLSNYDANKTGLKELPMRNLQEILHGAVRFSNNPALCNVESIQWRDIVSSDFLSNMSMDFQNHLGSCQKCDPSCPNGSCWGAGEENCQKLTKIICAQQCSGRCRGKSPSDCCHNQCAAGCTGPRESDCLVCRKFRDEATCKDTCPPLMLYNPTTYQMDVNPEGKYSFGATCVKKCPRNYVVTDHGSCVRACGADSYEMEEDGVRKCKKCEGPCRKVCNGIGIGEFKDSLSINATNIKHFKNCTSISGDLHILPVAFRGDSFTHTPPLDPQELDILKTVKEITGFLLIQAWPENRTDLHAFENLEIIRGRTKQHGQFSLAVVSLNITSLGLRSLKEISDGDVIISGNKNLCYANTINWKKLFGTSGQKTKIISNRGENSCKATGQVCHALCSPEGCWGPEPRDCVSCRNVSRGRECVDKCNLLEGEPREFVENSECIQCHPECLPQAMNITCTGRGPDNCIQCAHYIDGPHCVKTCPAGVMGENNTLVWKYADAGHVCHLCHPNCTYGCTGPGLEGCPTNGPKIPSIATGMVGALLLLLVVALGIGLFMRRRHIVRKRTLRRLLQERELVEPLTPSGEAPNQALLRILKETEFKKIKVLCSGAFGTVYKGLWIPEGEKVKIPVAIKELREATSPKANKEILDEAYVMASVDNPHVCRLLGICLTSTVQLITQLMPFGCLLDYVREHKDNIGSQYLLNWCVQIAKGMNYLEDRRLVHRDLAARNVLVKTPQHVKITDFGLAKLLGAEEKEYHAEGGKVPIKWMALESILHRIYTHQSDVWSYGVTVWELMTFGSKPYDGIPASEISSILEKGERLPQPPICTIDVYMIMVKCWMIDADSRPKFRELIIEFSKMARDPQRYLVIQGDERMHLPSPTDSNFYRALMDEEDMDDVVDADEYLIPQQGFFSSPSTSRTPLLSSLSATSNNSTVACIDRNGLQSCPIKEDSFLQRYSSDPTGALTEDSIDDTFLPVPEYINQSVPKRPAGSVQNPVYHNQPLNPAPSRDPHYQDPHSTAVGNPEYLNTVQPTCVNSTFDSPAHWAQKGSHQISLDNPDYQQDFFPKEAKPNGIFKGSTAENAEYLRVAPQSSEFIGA
T1 sequence (Q9H422 whole entry): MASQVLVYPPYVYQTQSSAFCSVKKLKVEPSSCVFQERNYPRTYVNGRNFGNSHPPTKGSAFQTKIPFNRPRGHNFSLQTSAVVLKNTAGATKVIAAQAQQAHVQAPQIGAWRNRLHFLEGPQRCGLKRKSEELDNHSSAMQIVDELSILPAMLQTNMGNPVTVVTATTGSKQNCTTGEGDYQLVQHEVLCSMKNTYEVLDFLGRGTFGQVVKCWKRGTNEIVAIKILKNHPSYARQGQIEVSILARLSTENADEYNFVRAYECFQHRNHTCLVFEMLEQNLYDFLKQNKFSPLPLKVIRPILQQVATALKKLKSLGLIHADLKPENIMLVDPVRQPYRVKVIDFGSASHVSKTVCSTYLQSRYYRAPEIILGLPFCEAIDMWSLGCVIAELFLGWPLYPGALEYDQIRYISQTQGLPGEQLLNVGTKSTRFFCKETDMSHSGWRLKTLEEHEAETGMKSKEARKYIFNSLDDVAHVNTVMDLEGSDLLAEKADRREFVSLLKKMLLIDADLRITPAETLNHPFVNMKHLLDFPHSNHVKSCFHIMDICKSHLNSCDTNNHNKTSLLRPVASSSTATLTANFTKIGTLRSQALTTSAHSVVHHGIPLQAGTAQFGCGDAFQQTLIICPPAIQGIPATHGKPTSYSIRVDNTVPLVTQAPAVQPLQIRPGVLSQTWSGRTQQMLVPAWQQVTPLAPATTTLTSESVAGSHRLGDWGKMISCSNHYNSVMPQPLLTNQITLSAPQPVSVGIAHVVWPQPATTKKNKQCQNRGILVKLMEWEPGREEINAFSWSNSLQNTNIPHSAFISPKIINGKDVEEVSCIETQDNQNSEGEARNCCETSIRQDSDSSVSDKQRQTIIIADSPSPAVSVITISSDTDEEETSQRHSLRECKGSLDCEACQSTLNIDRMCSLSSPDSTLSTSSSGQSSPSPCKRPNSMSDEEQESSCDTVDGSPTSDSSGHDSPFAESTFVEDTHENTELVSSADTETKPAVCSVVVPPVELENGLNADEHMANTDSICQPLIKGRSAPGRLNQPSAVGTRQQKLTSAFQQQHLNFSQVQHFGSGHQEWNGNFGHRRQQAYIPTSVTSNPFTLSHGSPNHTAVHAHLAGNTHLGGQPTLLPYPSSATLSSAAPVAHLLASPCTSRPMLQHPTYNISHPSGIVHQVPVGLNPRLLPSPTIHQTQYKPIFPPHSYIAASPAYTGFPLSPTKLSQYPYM

`COc1cc(C(=O)N2CCC(N3CCN(C)CC3)CC2)ccc1Nc1ncc2c(n1)N(C1CCCC1)c1ccccc1C(=O)N2C` [Compound 25, 11-cyclopentyl-2-((2-methoxy-4-(4-(4-methylpiperazin-1-yl)piperidine-1-carbonyl)phenyl)amino)-5-methyl-5H-benzo[e]pyrimido[5,4-b][1,4]diazepin-6(11H)-one]: the “KINOMEscan: HIPK3” value on panel of 442 kinases [1] amounted to 100. Further, on panel of 442 kinases [2], the “KINOMEscan: EGFR(G719C)” value worked out at 71. The “KINOMEscan: PAK6” value on panel of 442 kinases [3] was found to be 86. The “KINOMEscan: CDK9” value at panel of 442 kinases [4] came out at 98.
On to `COc1cc(C(=O)N2CCC(N3CCN(C)CC3)CC2)ccc1Nc1ncc2c(n1)N1CCc3cccc(c31)C(=O)N2C` [Compound 24], for which the “KINOMEscan: HIPK3” value on panel of 442 kinases [1] turned out to be 48. Moreover, the “KINOMEscan: EGFR(G719C)” value on panel of 442 kinases [2] was 66. Moreover, on panel of 442 kinases [4], the “KINOMEscan: CDK9” value was found to be 96.
On to `COc1cc(C(=O)N2CCC(N3CCN(C)CC3)CC2)ccc1Nc1ncc2c(n1)N(C)c1ccccc1C(=O)N2C` [15 (LRRK2-IN-1)], for which the “KINOMEscan: HIPK3” value at panel of 442 kinases [1] was 89. For the same compound, the “KINOMEscan: EGFR(G719C)” value on panel of 442 kinases [2] is 100. In addition, the “KINOMEscan: PAK6” value at panel of 442 kinases [3] came out at 98. Also, on panel of 442 kinases [4], the “KINOMEscan: CDK9” value was 100.
With `CCOc1cc(C(=O)N2CCC(N3CCN(C)CC3)CC2)ccc1Nc1ncc2c(n1)N(C1CCCC1)c1ccccc1C(=O)N2C` [Compound 26], on panel of 442 kinases [1], the “KINOMEscan: HIPK3” value is listed as 92. For the same compound, the “KINOMEscan: EGFR(G719C)” value at panel of 442 kinases [2] turned out to be 100. Also, the “KINOMEscan: PAK6” value on panel of 442 kinases [3] is 100. In addition, the “KINOMEscan: CDK9” value at panel of 442 kinases [4] is reported as 100.
